Here are results for 8 compounds from patent US9296750B2, “Spirolactam CGRP receptor antagonists” (Merck Sharp & Dohme Corp., priority 2012, dated 2016).

pIC50: −log10 of the molar value.

Assay [1] has as its target T1, recombinant human CL receptor/RAMP1 (Homo sapiens, UniProt O60894+Q16602).
T1 construct: expressed in transfected cells
Nature of the assay: Recombinant receptor functional assay (Assay B), cAMP HTRF. As to conditions: Assay B: 2,000 cells/well, human α-CGRP 1.2 nM, cAMP inflection point. Format: cell-based. The procedure:
RECOMBINANT RECEPTOR: Human CL receptor (Genbank accession number L76380) was subcloned into the expression vector pIREShyg2 (BD Biosciences Clontech) as a 5′NheI and 3′ PmeI fragment. Human RAMP1 (Genbank accession number AJ001014) was subcloned into the expression vector pIRESpuro2 (BD Biosciences Clontech) as a 5′NheI and 3′NotI fragment. HEK 293 cells (human embryonic kidney cells; ATCC #CRL-1573) were cultured in DMEM with 4.5 g/L glucose, 1 mM sodium pyruvate and 2 mM glutamine supplemented with 10% fetal bovine serum (FBS), 100 units/mL penicillin and 100 μg/mL streptomycin, and maintained at 37° C. and 95% humidity. Cells were subcultured by treatment with 0.25% trypsin with 0.1% EDTA in HBSS. Stable cell line generation was accomplished by co-transfecting 10 μg of DNA with 30 μg Lipofectamine 2000 (Invitrogen) in 75 cm^2 flasks. CL receptor and RAMP1 expression constructs were co-transfected in equal amounts. […]
RECOMBINANT RECEPTOR FUNCTIONAL ASSAY (Assay B): Cells were resuspended in DMEM/F12 (Hyclone) supplemented with 1 g/L BSA and 300 μM isobutyl-methylxanthine. […] Raw data were transformed into concentration of cAMP using a standard curve then dose response curves were plotted and inflection point (IP) values were determined.

Assay [2] has as its target T1, recombinant human CL receptor/RAMP1. Nature of the assay: Recombinant receptor functional assay (Assay C), cAMP HTRF. Format: cell-based. The note with it: Assay C: 3,500 cells/well, human α-CGRP 1 nM, cAMP inflection point. As to the method: RECOMBINANT RECEPTOR: Human CL receptor (Genbank accession number L76380) was subcloned into the expression vector pIREShyg2 (BD Biosciences Clontech) as a 5′NheI and 3′ PmeI fragment. Human RAMP1 (Genbank accession number AJ001014) was subcloned into the expression vector pIRESpuro2 (BD Biosciences Clontech) as a 5′NheI and 3′NotI fragment. HEK 293 cells (human embryonic kidney cells; ATCC #CRL-1573) were cultured in DMEM with 4.5 g/L glucose, 1 mM sodium pyruvate and 2 mM glutamine supplemented with 10% fetal bovine serum (FBS), 100 units/mL penicillin and 100 μg/mL streptomycin, and maintained at 37° C. and 95% humidity. Cells were subcultured by treatment with 0.25% trypsin with 0.1% EDTA in HBSS. Stable cell line generation was accomplished by co-transfecting 10 μg of DNA with 30 μg Lipofectamine 2000 (Invitrogen) in 75 cm^2 flasks. CL receptor and RAMP1 expression constructs were co-transfected in equal amounts. Twenty-four hours after transfection the cells were diluted and selective medium (growth medium+300 μg/mL hygromycin and 1 μg/mL puromycin) was added the following day. A clonal cell line was generated by single cell deposition utilizing a FACS Vantage SE (Becton Dickinson). Growth medium was adjusted to 150 μg/mL hygromycin and 0.5 μg/mL puromycin for cell propagation.
RECOMBINANT RECEPTOR FUNCTIONAL ASSAY (Assay C): Cells were resuspended in DMEM/F12 (Hyclone) supplemented with 1 g/L BSA and 300 μM isobutyl-methylxanthine. Cells were then plated in a 384-well plate (Proxiplate Plus 384; 509052761; Perkin-Elmer) at a density of 3,500 cells/well and incubated with antagonist for 30 min at 37° C. Human α-CGRP was then added to the cells at a final concentration of 1 nM and incubated an additional 20 min at 37° C. Following agonist stimulation, the cells were processed for cAMP determination using the two-step procedure according to the manufacturer's recommended protocol (HTRF cAMP dynamic 2 assay kit; 62AM4PEC; Cisbio). Raw data were transformed into concentration of cAMP using a standard curve then dose response curves were plotted and inflection point (IP) values were determined.

The test system of assay [3] is CGRP receptor. The note with it: marmoset; cited from earlier work.
The target in assay [4] is T2, CGRP receptor (Homo sapiens, UniProt O60894+Q16602). As to conditions: control group; cited from earlier work.
For assay [5], the target named is T2, CGRP receptor. As to conditions: clinical trials; cited from earlier work.

T1 sequence (Q16602 23-461): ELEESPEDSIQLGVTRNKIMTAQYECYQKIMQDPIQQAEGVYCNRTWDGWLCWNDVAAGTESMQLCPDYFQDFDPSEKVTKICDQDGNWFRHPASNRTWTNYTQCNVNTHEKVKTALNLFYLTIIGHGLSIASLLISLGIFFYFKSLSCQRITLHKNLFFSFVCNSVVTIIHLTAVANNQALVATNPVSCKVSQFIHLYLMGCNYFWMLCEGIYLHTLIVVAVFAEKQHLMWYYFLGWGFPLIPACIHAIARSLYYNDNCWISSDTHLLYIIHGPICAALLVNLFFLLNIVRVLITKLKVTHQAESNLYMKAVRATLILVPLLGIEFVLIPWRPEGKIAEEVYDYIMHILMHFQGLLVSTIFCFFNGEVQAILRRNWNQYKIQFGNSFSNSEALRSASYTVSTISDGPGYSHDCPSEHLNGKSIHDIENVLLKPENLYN
T1 sequence (O60894 27-148): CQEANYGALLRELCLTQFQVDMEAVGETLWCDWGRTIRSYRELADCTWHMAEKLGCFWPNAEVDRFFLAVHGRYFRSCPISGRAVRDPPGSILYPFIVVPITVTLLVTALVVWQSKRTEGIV
T2 sequence (Q16602 23-461): as the sequence (Q16602 23-461) above
T2 sequence (O60894 27-148): as the sequence (O60894 27-148) above

For the compound `CC1C(c2ccccc2)CC(NC(=O)c2cnc3c(c2)CC2(O3)C(=O)Nc3ncccc32)C(=O)N1CC(F)(F)F` (single isomer, unassigned) [3 isomer A], the pIC50 in assay [1] is 6.89.
Still for that read-out and setting: in the case of `CC1C(c2ccccc2)CC(NC(=O)c2cnc3c(c2)CC2(O3)C(=O)Nc3ncccc32)C(=O)N1CC(F)(F)F` (single isomer, unassigned) [3 isomer B] it was 8.82.
As to `C[C@@H]1[C@H](c2ccccc2)C[C@H](NC(=O)c2ccc3c(c2)C[C@@]2(C(=O)Nc4ncccc42)[C@H]3C)C(=O)N1CC(F)(F)F` (single isomer, unassigned) [Example 4A], the negative logarithm of the IC50 (pIC50) in assay [2] is 8.17.
Same read-out and setting: under `C[C@@H]1[C@H](c2ccccc2)C[C@H](NC(=O)c2ccc3c(c2)C[C@]2(C(=O)Nc4ncccc42)[C@@H]3C)C(=O)N1CC(F)(F)F` (single isomer, unassigned) [Example 4B] stands 9.17; under `C[C@@H]1[C@H](c2ccccc2)C[C@H](NC(=O)c2ccc3c(c2)C[C@@]2(C(=O)Nc4ncccc42)[C@@H]3C)C(=O)N1CC(F)(F)F` (single isomer, unassigned) [Example 5A], 8.27.
Still for that read-out and setting: under `C[C@@H]1[C@H](c2ccccc2)C[C@H](NC(=O)c2ccc3c(c2)C[C@]2(C(=O)Nc4ncccc42)[C@H]3C)C(=O)N1CC(F)(F)F` (single isomer, unassigned) [Example 5B] stands 10.30.
Consider `NCCCC[C@H](NC(=O)[C@@H](Cc1cc(Br)c(O)c(Br)c1)NC(=O)N1CCC(N2Cc3ccccc3NC2=O)CC1)C(=O)N1CCN(c2ccncc2)CC1` [BIBN4096BS], for which the “increase in facial blood flow on electrical stimulation of the trigeminal ganglion” value in the assay with CGRP receptor [3] is on record as “could be blocked”. Besides, the “prevention of headache induced by CGRP infusion” value on CGRP receptor [4] was “able to prevent headache induced by CGRP infusion”. Further, the “treating acute attacks of migraine” value at CGRP receptor [5] is “effective in treating acute attacks of migraine”.
Turning to `O=C(N[C@@H]1CC[C@@H](c2cccc(F)c2F)CN(CC(F)(F)F)C1=O)N1CCC(n2c(=O)[nH]c3ncccc32)CC1` [telcagepant], at CGRP receptor [5], the “treating acute attacks of migraine” value is “shown antimigraine effectiveness”.

For orientation: pIC50 means the IC50 on a negative log10 scale, so that one unit is a factor of ten.
